Results from patent US6610721B2, “Imidazo heterocyclic compounds” (Novo Nordisk A/S, priority 2000, dated 2003).
Structures can show the parent of a compound that is named as a salt.

Compound	melting point
FC(F)(F)Oc1ccc(OCC2CCCc3[nH]cnc32)cc1 (centres unmarked) (as salt: hydrochloride) [Example 58, 4-(4-Trifluoromethoxyphenoxymethyl)-4,5,6,7-tetrahydro-1H-benzimidazole, Hydrochloride]	202 to 209 °C
O=C1CCCc2c(OCC3CCCc4[nH]cnc43)cccc21 (centres unmarked) (as salt: hydrochloride)	237 to 240 °C
Cl.Clc1ccccc1OCC1CCCc2[nH]cnc21 (centres unmarked)	207 to 209 °C
FC(F)(F)c1ccc(OCC2CCCc3[nH]cnc32)cc1 (centres unmarked) (as salt: hydrochloride)	242 to 244 °C
Clc1ccc(OCC2CCCc3[nH]cnc32)cc1 (centres unmarked) (as salt: hydrochloride)	210 to 212 °C
N#Cc1ccc(OCC2CCCCc3[nH]cnc32)cc1 (centres unmarked) (as salt: hydrochloride) [Example 57, 4-(1,4,5,6,7,8-Hexahydrocycloheptaimidazol-4-ylmethoxy)benzonitrile, Hydrochloride]	232 to 235 °C
Cc1cc(C#N)cc(C)c1OCC1CCCc2[nH]cnc21 (centres unmarked) (as salt: hydrochloride)	190 to 192 °C
N#Cc1ccc(OCC2CCCc3[nH]cnc32)c(Cl)c1 (centres unmarked) (as salt: hydrochloride)	225 to 227 °C
Cl.FC(F)(F)Oc1cccc(OCC2CCc3[nH]cnc3C2)c1 (centres unmarked)	170 to 171 °C
Cl.Fc1ccccc1OCC1CCc2[nH]cnc2C1 (centres unmarked)	192 to 194 °C
Cl.c1ccc(-c2cccc(OCC3CCc4[nH]cnc4C3)c2)cc1 (centres unmarked)	165 to 167 °C
O=C(c1ccc(OCC2CCCc3[nH]cnc32)cc1)C1CC1 (centres unmarked) (as salt: hydrochloride) [Example 63, Cyclopropyl-[4-(4,5,6,7-tetrahydro-1H-benzimidazol-4-ylmethoxy)phenyl]methanone, hydrochloride]	211 to 213 °C
COc1cc(C#N)ccc1OCC1CCCc2[nH]cnc21 (centres unmarked) (as salt: hydrochloride)	193 to 195 °C
Cl.Clc1ccccc1OCC1CCc2[nH]cnc2C1 (centres unmarked)	224 to 226 °C
